# Data as given in PubChem BioAssay (NCI).
# Several values for one entry are separate records, joined by “and”; a condition that tells them apart may be missing. Identical values can stand only once.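 Test compounds were applied to cells in 96-well plates for 48 hours at 5 doses. GI50: concentration for 50% inhibition of growth. At the TGI there is no net growth.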 Where a SMILES comes first, the peptide text is derived from it. The star is where a group is joined. Boc = CC(C)(C)OC(=O)*
# Tested on: 786-0 renal
# Test: DTP human tumour cell line panel, 48 h
SMILES,GI50,TGI
CS(=O)(=O)Nc1cc(-c2ccc3ncnc(Nc4c(Cl)ccc5c4OCO5)c3c2)cnc1Cl,0.233 µM,6.46 µM
COc1ccccc1Nc1ncc(-c2ccccc2)o1,> 25 µM,> 25 µM
Nc1ccn(C2OC(CO)C(O)C2O)c(=O)n1 (stereo not given),0.396 µM,> 100 µM and 388 µM and > 500 µM
CN1CC[C@@H](c2c(O)cc(O)c3c(=O)cc(-c4ccc(C(F)(F)F)cc4Cl)oc23)[C@@H]1CO,13.3 µM,31.9 µM
O=C(Nc1ccc(Cl)c(C(F)(F)F)c1)c1ccc(NC2=C(Cl)C(=O)N(Cc3ccccc3)C2=O)cc1,16.2 µM,32.9 µM
Nc1c(C(=O)c2ccccc2)cnn1-c1ccc(F)cc1,> 25 µM,> 25 µM
COC(=O)c1ccc(-c2c(C#N)[n+](=O)c3cc(Cl)c(Cl)cc3n2[O-])cc1,17.6 µM,35.6 µM
C#Cc1nc(Nc2cc(C)[nH]n2)c2ccccc2n1,0.349 µM,1.13 µM
COC(=O)C(C)NC(=O)C(CCSC)NC(=O)C(Cc1ccccc1)NC(=O)OC(C)(C)C (stereo not drawn) (Boc-Phe-Met-Ala-OMe; configuration not given here),43.3 µg/mL,> 100 µM
C/C(=N\NC(=S)N1CCCCCC1)c1ccccn1,0.0992 µM,2.17 µM and 3.12 µM
Oc1ccc2ccccc2c1N=Nc1ccc(Br)cc1,,> 100 µM
CC(C)=CCc1cc2c(cc1O)OC[C@H]1c3cc4c(cc3O[C@@H]21)OCO4,,> 100 µM
COc1cc2c3c(c1OC)-c1cc4c(cc1CC3(C#N)N(C(=O)c1ccccc1)CC2)OCO4 (stereo not given),,57.7 µM
COC(=O)C1=CN(CC2=CC(=O)C(C)=CC2=O)C=C(C(=O)OC)C1c1cccc(OC)c1,> 22.5 µM,> 41 µM
COc1ccc(Cn2c(N)c(S(=O)(=O)c3ccc(Cl)cc3)c3nc(C#N)c(C#N)nc32)cc1,3.33 µM,> 50 µM

# Tested on: HS 578T breast
# Test: DTP human tumour cell line panel, 48 h
SMILES,GI50 [µM],TGI [µM]
CS(=O)(=O)Nc1cc(-c2ccc3ncnc(Nc4c(Cl)ccc5c4OCO5)c3c2)cnc1Cl,0.0477,0.521
COc1ccccc1Nc1ncc(-c2ccccc2)o1,> 5.12,> 25
Nc1ccn(C2OC(CO)C(O)C2O)c(=O)n1 (stereo not given),,> 500
CN1CC[C@@H](c2c(O)cc(O)c3c(=O)cc(-c4ccc(C(F)(F)F)cc4Cl)oc23)[C@@H]1CO,11.8,33.6
O=C(Nc1ccc(Cl)c(C(F)(F)F)c1)c1ccc(NC2=C(Cl)C(=O)N(Cc3ccccc3)C2=O)cc1,2.43,5.67
Nc1c(C(=O)c2ccccc2)cnn1-c1ccc(F)cc1,> 25,> 25
COC(=O)c1ccc(-c2c(C#N)[n+](=O)c3cc(Cl)c(Cl)cc3n2[O-])cc1,25.7,92.2
C#Cc1nc(Nc2cc(C)[nH]n2)c2ccccc2n1,0.318,> 46.2
COC(=O)C(C)NC(=O)C(CCSC)NC(=O)C(Cc1ccccc1)NC(=O)OC(C)(C)C (stereo not drawn) (Boc-Phe-Met-Ala-OMe; configuration not given here),,> 100
C/C(=N\NC(=S)N1CCCCCC1)c1ccccn1,,3.85
Oc1ccc2ccccc2c1N=Nc1ccc(Br)cc1,,> 100
CC(C)=CCc1cc2c(cc1O)OC[C@H]1c3cc4c(cc3O[C@@H]21)OCO4,,75.5
COc1cc2c3c(c1OC)-c1cc4c(cc1CC3(C#N)N(C(=O)c1ccccc1)CC2)OCO4 (stereo not given),,82
COC(=O)C1=CN(CC2=CC(=O)C(C)=CC2=O)C=C(C(=O)OC)C1c1cccc(OC)c1,8.66,44.9
COc1ccc(Cn2c(N)c(S(=O)(=O)c3ccc(Cl)cc3)c3nc(C#N)c(C#N)nc32)cc1,14.6,> 50

# Tested on: KM12 colon
# Test: DTP human tumour cell line panel, 48 h
SMILES,GI50,TGI
CS(=O)(=O)Nc1cc(-c2ccc3ncnc(Nc4c(Cl)ccc5c4OCO5)c3c2)cnc1Cl,0.465 µM,1.87 µM
COc1ccccc1Nc1ncc(-c2ccccc2)o1,9.77 µM,> 25 µM
Nc1ccn(C2OC(CO)C(O)C2O)c(=O)n1 (stereo not given),,> 500 µM
CN1CC[C@@H](c2c(O)cc(O)c3c(=O)cc(-c4ccc(C(F)(F)F)cc4Cl)oc23)[C@@H]1CO,13.7 µM,30.4 µM
O=C(Nc1ccc(Cl)c(C(F)(F)F)c1)c1ccc(NC2=C(Cl)C(=O)N(Cc3ccccc3)C2=O)cc1,20.3 µM,47.3 µM
Nc1c(C(=O)c2ccccc2)cnn1-c1ccc(F)cc1,> 25 µM,> 25 µM
COC(=O)c1ccc(-c2c(C#N)[n+](=O)c3cc(Cl)c(Cl)cc3n2[O-])cc1,20.9 µM,51.3 µM
C#Cc1nc(Nc2cc(C)[nH]n2)c2ccccc2n1,0.232 µM,0.503 µM
COC(=O)C(C)NC(=O)C(CCSC)NC(=O)C(Cc1ccccc1)NC(=O)OC(C)(C)C (stereo not drawn) (Boc-Phe-Met-Ala-OMe; configuration not given here),22.4 µg/mL,51.1 µg/mL and > 100 µM
C/C(=N\NC(=S)N1CCCCCC1)c1ccccn1,0.0688 µM,0.517 µM and 5.16 µM
Oc1ccc2ccccc2c1N=Nc1ccc(Br)cc1,,> 100 µM
CC(C)=CCc1cc2c(cc1O)OC[C@H]1c3cc4c(cc3O[C@@H]21)OCO4,,> 100 µM
COc1cc2c3c(c1OC)-c1cc4c(cc1CC3(C#N)N(C(=O)c1ccccc1)CC2)OCO4 (stereo not given),,> 100 µM
COC(=O)C1=CN(CC2=CC(=O)C(C)=CC2=O)C=C(C(=O)OC)C1c1cccc(OC)c1,8.34 µM,26.9 µM
COc1ccc(Cn2c(N)c(S(=O)(=O)c3ccc(Cl)cc3)c3nc(C#N)c(C#N)nc32)cc1,28 µM,> 50 µM

# Tested on: LOX IMVI melanoma
# Test: DTP human tumour cell line panel, 48 h
SMILES,GI50,TGI
CS(=O)(=O)Nc1cc(-c2ccc3ncnc(Nc4c(Cl)ccc5c4OCO5)c3c2)cnc1Cl,0.172 µM,1.08 µM
COc1ccccc1Nc1ncc(-c2ccccc2)o1,> 25 µM,> 25 µM
Nc1ccn(C2OC(CO)C(O)C2O)c(=O)n1 (stereo not given),0.829 µM,
CN1CC[C@@H](c2c(O)cc(O)c3c(=O)cc(-c4ccc(C(F)(F)F)cc4Cl)oc23)[C@@H]1CO,11.9 µM,25.6 µM
O=C(Nc1ccc(Cl)c(C(F)(F)F)c1)c1ccc(NC2=C(Cl)C(=O)N(Cc3ccccc3)C2=O)cc1,1.24 µM,2.63 µM
Nc1c(C(=O)c2ccccc2)cnn1-c1ccc(F)cc1,> 25 µM,> 25 µM
COC(=O)c1ccc(-c2c(C#N)[n+](=O)c3cc(Cl)c(Cl)cc3n2[O-])cc1,2.38 µM,5.37 µM
C#Cc1nc(Nc2cc(C)[nH]n2)c2ccccc2n1,0.151 µM,0.308 µM
COC(=O)C(C)NC(=O)C(CCSC)NC(=O)C(Cc1ccccc1)NC(=O)OC(C)(C)C (stereo not drawn) (Boc-Phe-Met-Ala-OMe; configuration not given here),20.3 µg/mL,43 µg/mL and > 100 µM
C/C(=N\NC(=S)N1CCCCCC1)c1ccccn1,,4.37 µM and 1.37 µM
Oc1ccc2ccccc2c1N=Nc1ccc(Br)cc1,,> 100 µM
CC(C)=CCc1cc2c(cc1O)OC[C@H]1c3cc4c(cc3O[C@@H]21)OCO4,,31.7 µM
COc1cc2c3c(c1OC)-c1cc4c(cc1CC3(C#N)N(C(=O)c1ccccc1)CC2)OCO4 (stereo not given),,> 93.6 µM
COC(=O)C1=CN(CC2=CC(=O)C(C)=CC2=O)C=C(C(=O)OC)C1c1cccc(OC)c1,17.6 µM,42.7 µM
COc1ccc(Cn2c(N)c(S(=O)(=O)c3ccc(Cl)cc3)c3nc(C#N)c(C#N)nc32)cc1,8.27 µM,38.3 µM

# Tested on: M14 melanoma
# Test: DTP human tumour cell line panel, 48 h
SMILES,GI50,TGI
CS(=O)(=O)Nc1cc(-c2ccc3ncnc(Nc4c(Cl)ccc5c4OCO5)c3c2)cnc1Cl,0.2 µM,1.48 µM
COc1ccccc1Nc1ncc(-c2ccccc2)o1,> 25 µM,> 25 µM
Nc1ccn(C2OC(CO)C(O)C2O)c(=O)n1 (stereo not given),0.103 µM and 0.285 µM and 0.976 µM,
CN1CC[C@@H](c2c(O)cc(O)c3c(=O)cc(-c4ccc(C(F)(F)F)cc4Cl)oc23)[C@@H]1CO,17.8 µM,33.8 µM
O=C(Nc1ccc(Cl)c(C(F)(F)F)c1)c1ccc(NC2=C(Cl)C(=O)N(Cc3ccccc3)C2=O)cc1,19.6 µM,41.6 µM
Nc1c(C(=O)c2ccccc2)cnn1-c1ccc(F)cc1,> 25 µM,> 25 µM
COC(=O)c1ccc(-c2c(C#N)[n+](=O)c3cc(Cl)c(Cl)cc3n2[O-])cc1,16.2 µM,34.1 µM
C#Cc1nc(Nc2cc(C)[nH]n2)c2ccccc2n1,0.232 µM,0.559 µM
COC(=O)C(C)NC(=O)C(CCSC)NC(=O)C(Cc1ccccc1)NC(=O)OC(C)(C)C (stereo not drawn) (Boc-Phe-Met-Ala-OMe; configuration not given here),,> 100 µM
C/C(=N\NC(=S)N1CCCCCC1)c1ccccn1,0.0103 µM,1.56 µM and 0.74 µM
Oc1ccc2ccccc2c1N=Nc1ccc(Br)cc1,,> 100 µM
CC(C)=CCc1cc2c(cc1O)OC[C@H]1c3cc4c(cc3O[C@@H]21)OCO4,,> 100 µM
COc1cc2c3c(c1OC)-c1cc4c(cc1CC3(C#N)N(C(=O)c1ccccc1)CC2)OCO4 (stereo not given),,> 100 µM
COC(=O)C1=CN(CC2=CC(=O)C(C)=CC2=O)C=C(C(=O)OC)C1c1cccc(OC)c1,18.6 µM,35.6 µM
